Measurements as given in patent publication US8962558B2, “Methods for reducing GnRH-positive tumor cell proliferation using the GnRH antagonist IN3” (priority 1997, dated 2015).
Square brackets hold non-standard residues; d marks the D form. Peptide text beside a SMILES is read from it. dPhe(4-Cl) = N[C@H](Cc1ccc(Cl)cc1)C(=O)O; d2Nal = N[C@H](Cc1ccc2ccccc2c1)C(=O)O; dCit = NC(=O)NCCC[C@@H](N)C(=O)O; d3Pal = N[C@H](Cc1cccnc1)C(=O)O

What was measured:
[1] = system: malignant gliomas U-87MG and U-373MG; assay: In vivo study with tumor-implanted nude mice (Example 4); conditions: daily dosages
Procedure: An effect of the treatment of tumor-implanted nude mice (Pinski et al., supra) each with one of the GnRH agonists Buserelin, Triptorelin, Goserelin, and Leuprorelin and each with one of the GnRH antagonists Cetrorelix® (SB-75), Antarelix®, Antide®, and Ramorelix® on the growth of malignant gliomas U-87MG and U-373MG was carried out using daily dosages and controls in nude mice using analysis techniques described for the determination of the efficacy of similar peptides in Pinski et al., supra.

[2] = system: small cell lung carcinoma cell lines NCI-H1688, NCI-H1417, NCI-H1672, NCI-H1836, DMS-79, DM-553, DMS-114, SW-1271, NCI-H2227, NCI-HI1963, SHP-77 and H-69 AR; assay: Proliferation assay on small cell lung carcinoma cell lines (Example 3); type: cell-based, human; conditions: small cell lung carcinoma cell lines treated with the substance
Procedure: In another embodiment, the small cell lung carcinoma cell lines NCI-H1688, NCI-H1417, NCI-H1672, NCI-H1836, DMS-79, DM-553, DMS-114, SW-1271, NCI-H2227, NCI-HI1963 and SHP-77 in addition to the multidrug-resistant small cell lung carcinoma cell line H-69 AR, are cultured as described above and then treated as described by Emons, G., et al., 1993, supra, and Irmer, G., 1995, supra, with various concentrations of the GnRH agonists (D-Lys6)-GnRH, Lutrelin, Histrelin, Nafarelin, Azagly-Nafarelin, Deslorelin, Cystorelin, Decapeptyl, Gonadorelin, GnRH, D-Lys(6)-GnRH II, Lamprey GnRH II, (D-Lys6)-Lamprey GnRH, (D-Lys6)-Lamprey GnRH II and Lamprey GnRH III.
In another embodiment, the small cell lung carcinoma cell lines NCI-H1688, NCI-H1417, NCI-H1672, NCI-H1836, DMS-79, DM-553, DMS-114, SW-1271, NCI-H2227, NCI-HI1963 and SHP-77 in addition to the multidrug-resistant small cell lung carcinoma cell line H-69 AR, are cultured as described above for the above-mentioned cell lines, and then treated as described by Emons, G., et al., 1993, supra, and Irmer, G., 1995, supra, with a concentration of the GnRH antagonist Cetrorelix (also known as Cetrotide®) or with a GnRH peptide antagonist Ac-D-Nal(2)-D-4-ClPhe-D-Pal-Ser-1-MePal-D-IsopropylLys-Leu-IsopropylLys-Pro-D-AlaNH2 wherein Mepal is 1-Methyl-3-[3′-pyridyl]-alanine or Ant 135-25 (also known as Ac-D-Nal(2)-D-4-Cl-Phe-D-Pal-Ser-1-MePal-D-IsopropylLys-Leu-IsopropylLys-Pro-D-AlaNH2), Teverelix (also known as Antarelix®), Cetrorelix (also known as Cetrotide®), Abarelix (also known as Plenaxis®), D-63153 (also known as Ozarelix®), acyline, azaline B, antide (also known as Iturelix®), Degarelix (FE200486), Ganirelix, Nal-Glu, Orntide (also known as Ornirelix®) or with antagonist peptidomimetic ((2S)-2-[5-[2-(2-azabicyclo[2,2,2]oct-2-yl)-1,1-dimethyl-2-oxoethyl]-2-(3,5-dimethylphenyl)-1H-indol-3-yl]-N-(2-pyridin-4-ylethyl-)propan-1-amine (also known as “IN3”).

[3] = system: human glioblastoma cell lines U-87MG or U-373MG, Kaposi sarcoma cell lines KSY-1 or KS-SLK, malignant melanoma cell line MV3 or BLM, medulloblastoma cell line …; assay: Proliferation assay on cell cultures (Example 3); type: cell-based; conditions: for anti-proliferative effects in tumor cells: cell lines of Example 3 treated with the substance; for anti-proliferative effect compared with Cetrorelix only: given additionally as a second GnRH antagonist
Procedure: A human cell line, such as the well known human glioblastoma cell lines U-87MG or U-373MG (Pinski et al., supra), or a human cell line such as the well known Kaposi sarcoma cell lines KSY-1 or KS-SLK (Parkash et al., 1996, New England Journal of Medicine, 335, 17, 1261-1269), or a human cell line such as the well known human malignant melanoma cell line MV3 or BLM (Goldbrunner, R. H., et al., 1996, Anticancer Research 16 (6B), 3679-87), or a human medulloblastoma cell line such as the well known cell line Daoy or D283 MED (Stockhammer et al., 1995, J. Neurosurgery, 83, 672-681), or human meningeoma cell cultures (Boyle-Wash, E., et al., 1995, Journal of Endocrinology, 145, 155-161), are cultured as previously described for the above-mentioned cell lines and then treated with a concentration of the GnRH agonist Triptorelin®, GnRH antagonist SB-75 (Cetrorelix®) or GnRH antagonist Ramorelix®. […]
In another embodiment, the above-mentioned cell lines are treated as described by Emons, G., et al., 1993, supra, and Irmer, G., 1995, supra, with a concentration of the GnRH peptide antagonist Ac-D-Nal(2)-D-4-ClPhe-D-Pal-Ser-1-MePal-D-IsopropylLys-Leu-IsopropylLys-Pro-D-AlaNH2 (also known as Ant 135-25; the Mepal portion is known as 1-Methyl-3-[3′-pyridyl]-alanine), Teverelix (also known as Antarelix®), Cetrorelix (also known as Cetrotide®), Abarelix (also known as Plenaxis®), D-63153 (also known as Ozarelix®), acyline, azaline B, antide (also known as Iturelix®), Degarelix (FE200486), Ganirelix, Nal-Glu, Orntide (also known as Ornirelix®), Elagolix, or with antagonist peptidomimetic ((2S)-2-[5-[2-(2-azabicyclo[2,2,2]oct-2-yl)-1,1-dimethyl-2-oxoethyl]-2-(3,5-dimethylphenyl)-1H-indol-3-yl]-N-(2-pyridin-4-ylethyl-)propan-1-amine (also known as “IN3”).
In another embodiment, the cell lines used above were each additionally treated with a second GnRH antagonist, namely one of the GnRH antagonists Cetrorelix®, Ant 135-25, IN3, degarelix, Antarelix®, Antide®, and Ramorelix® or alternatively with one of the GnRH antagonists that have been disclosed in U.S. Pat. Nos. 6,939,88, 6,200,957, 5,296,468, 4,851,385, 7,361,633, 7,288,517, WO/2009/106597 or PCT/EP2009/052326, U.S. Pat. Nos. 5,480,969, 5,198,533, or UK Patent GB 2 246782 B, wherein these additional treatment procedures were carried out in a manner similar to those reported in Emons et al., supra, using SB 75 (Cetrorelix®). […]

[4] = system: U-87MG cells; type: cell-based, human
Procedure: U-87MG cells were plated at a density of 1400 cells/cm^2 in […] in standard culture medium. Cells were allowed to attach and start growing for 3 days; the seeding media were then changed to experimental media. Cells were treated for 7 days with ZOLADEX® (10^−10-10^−6 M); medium was changed every two days. Following treatment, cells were collected and counted by hemocytometer. Data obtained from three independent experiments were analyzed according to the Dunnett's test after one-way ANOVA.

[5] = system: human melanoma cell line MV3; assay: Proliferation assay using the human malignant melanoma cell line MV3; type: cell-based
Procedure: The human melanoma cell line MV3 was cultured (in long-term culture in RPMI medium (Gibco Co.) with 1% Penstrep and 10% of heat-inactivated fetal calf serum). The proliferation assay was carried out with 6×10^2 cells per well in 96 well plates. First, the cells were removed from the culture flask with a […] and then washed in standard PBS solution. Following centrifugation for 10 minutes (1200 g) the supernatant was discarded and the pellet resuspended in 1 ml medium. An aliquot of 20 μl of the cells was diluted with trypan blue to obtain an 1:20 dilution. Trypan blue stains the necrotic cells. Then counting was performed in a Neubauer counting chamber. Evaluation was performed by daily determination of 4 values starting at day 0 and multiplying the mean values of the cell counts×10^4× dilution factor 20 to obtain the cell count. During the 5 days, the measurement was performed 4× daily in a Biomec spectrophotometer.
The method for determination of tumor cell proliferation is described in Lü, H. Q., et al., 1996, Journal of Cancer Research and Clinical Oncology, 122, 335-342.
The cell line was treated with (Gly-OH10)-LHRH, the LHRH hormone (FIG. 3) (Sigma Chemical Co., No. L8008) or Triptorelin, an LHRH agonist (FIG. 2) (Sigma Chemical Co., No. L9761) or Antide®, a LHRH antagonist (FIG. 1) (Sigma Chemical Co., No. A8802).
Using concentrations of 10^−4 M, 10^−5 M, and 10^−6 M, with the medium serving as a negative control from day 4 on, the following results were obtained: […]

Molecule	growth of malignant gliomas [1]	anti-proliferative effects in tumor cells [2]	anti-proliferative effects in tumor cells [3]	anti-proliferative effect compared with Cetrorelix only [3]	further results
CC(=O)N[C@H](Cc1ccc2ccccc2c1)C(=O)N[C@H](Cc1ccc(Cl)cc1)C(=O)N[C@H](Cc1cccnc1)C(=O)N[C@@H](CO)C(=O)N[C@@H](Cc1ccc(O)cc1)C(=O)N[C@H](CCCNC(N)=O)C(=O)N[C@@H](CC(C)C)C(=O)N[C@@H](CCCNC(=N)N)C(=O)N1CCC[C@H]1C(=O)N[C@H](C)C(N)=O [Cetrorelix®] (Ac-[d2Nal][dPhe(4-Cl)][d3Pal]SY[dCit]LRP[dA]-NH2)	Significant growth-inhibiting effects	Significant anti-proliferative effects	Significant anti-proliferative effects	significantly stronger anti-proliferative effect	inhibition of proliferation compared to controls ([4]; 10^−5 M): 30%; decrease of proliferation ([4]; 10^−6 M): 28%
CCNC(=O)[C@@H]1CCCN1C(=O)[C@H](CCCNC(=N)N)NC(=O)[C@H](CC(C)C)NC(=O)[C@@H](CC(C)C)NC(=O)[C@H](Cc1ccc(O)cc1)NC(=O)[C@H](CO)NC(=O)[C@H](Cc1c[nH]c2ccccc12)NC(=O)[C@H](Cc1c[nH]cn1)NC(=O)[C@@H]1CCC(=O)N1 [LEUPRORELIN®]	Significant growth-inhibiting effects	–	Significant anti-proliferative effects	–	–
(Gly-OH10)-LHRH (QHWSYGLRPG; Gonadoliberin-1 C-terminal free acid; UniProt P01148 24-33, looked up) [LHRH hormone, the LHRH hormone (Sigma Chemical Co., No. L8008)]	–	–	–	–	function of the LHRH hormone on MV3 growth in vitro [5]: positive growth factor
Ac-D-Nal(2)-D-4-ClPhe-D-Pal-Ser-1-MePal-D-IsopropylLys-Leu-IsopropylLys-Pro-D-AlaNH2 [Ant 135-25]	–	Significant anti-proliferative effects	Significant anti-proliferative effects	significantly stronger anti-proliferative effect	–
Antarelix®	Significant growth-inhibiting effects	Significant anti-proliferative effects	Significant anti-proliferative effects	significantly stronger anti-proliferative effect	–
Antide®	Significant growth-inhibiting effects	Significant anti-proliferative effects	Significant anti-proliferative effects	significantly stronger anti-proliferative effect	inhibition of proliferation ([5]; 10^−4 M, from day 4 on): 15%; inhibition of proliferation ([5]; 10^−5 M, from day 4 on): 35%; inhibition of proliferation ([5]; 10^−6 M): no inhibition; stimulation of the growth ([5]; 10^−6 M): 40%
Nal-Glu	–	Significant anti-proliferative effects	Significant anti-proliferative effects	–	–
